{
  "source": "ChEMBL document CHEMBL1135457",
  "about": "(J Med Chem, 2002)",
  "key": {"[1]": {"molecular_target": "T1, Androgen receptor (Homo sapiens, UniProt P10275)", "T1 sequence (P10275 whole entry)": "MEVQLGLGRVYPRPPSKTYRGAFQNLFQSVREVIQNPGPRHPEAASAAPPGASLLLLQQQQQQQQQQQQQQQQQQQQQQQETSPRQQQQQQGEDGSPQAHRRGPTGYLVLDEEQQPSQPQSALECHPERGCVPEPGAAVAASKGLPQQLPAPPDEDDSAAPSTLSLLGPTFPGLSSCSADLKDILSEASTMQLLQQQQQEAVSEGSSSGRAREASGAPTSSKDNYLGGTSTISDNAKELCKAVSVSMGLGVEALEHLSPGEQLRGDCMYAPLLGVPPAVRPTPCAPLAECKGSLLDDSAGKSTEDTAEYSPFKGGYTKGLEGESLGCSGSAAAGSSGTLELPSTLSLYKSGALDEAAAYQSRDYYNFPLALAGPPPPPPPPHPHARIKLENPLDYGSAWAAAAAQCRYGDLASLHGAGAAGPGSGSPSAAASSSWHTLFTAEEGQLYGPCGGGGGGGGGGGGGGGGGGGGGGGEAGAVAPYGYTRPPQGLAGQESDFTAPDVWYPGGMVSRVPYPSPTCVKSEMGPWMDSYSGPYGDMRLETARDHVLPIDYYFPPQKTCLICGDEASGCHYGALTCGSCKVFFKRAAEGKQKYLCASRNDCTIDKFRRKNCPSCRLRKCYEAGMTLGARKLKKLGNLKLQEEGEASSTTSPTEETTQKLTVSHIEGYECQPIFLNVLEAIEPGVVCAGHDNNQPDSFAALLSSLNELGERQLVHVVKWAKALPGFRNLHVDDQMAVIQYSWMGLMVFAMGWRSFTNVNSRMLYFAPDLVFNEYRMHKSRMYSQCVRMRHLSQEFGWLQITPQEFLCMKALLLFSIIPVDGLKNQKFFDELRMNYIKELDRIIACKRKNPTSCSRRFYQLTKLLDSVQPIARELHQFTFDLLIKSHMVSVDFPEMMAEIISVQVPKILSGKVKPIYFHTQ", "experiment": "Displacement of [3H]DHT from human Androgen receptor"}, "[2]": {"molecular_target": "T2, Glucocorticoid receptor (Homo sapiens, UniProt P04150)", "T2 sequence (P04150 whole entry)": "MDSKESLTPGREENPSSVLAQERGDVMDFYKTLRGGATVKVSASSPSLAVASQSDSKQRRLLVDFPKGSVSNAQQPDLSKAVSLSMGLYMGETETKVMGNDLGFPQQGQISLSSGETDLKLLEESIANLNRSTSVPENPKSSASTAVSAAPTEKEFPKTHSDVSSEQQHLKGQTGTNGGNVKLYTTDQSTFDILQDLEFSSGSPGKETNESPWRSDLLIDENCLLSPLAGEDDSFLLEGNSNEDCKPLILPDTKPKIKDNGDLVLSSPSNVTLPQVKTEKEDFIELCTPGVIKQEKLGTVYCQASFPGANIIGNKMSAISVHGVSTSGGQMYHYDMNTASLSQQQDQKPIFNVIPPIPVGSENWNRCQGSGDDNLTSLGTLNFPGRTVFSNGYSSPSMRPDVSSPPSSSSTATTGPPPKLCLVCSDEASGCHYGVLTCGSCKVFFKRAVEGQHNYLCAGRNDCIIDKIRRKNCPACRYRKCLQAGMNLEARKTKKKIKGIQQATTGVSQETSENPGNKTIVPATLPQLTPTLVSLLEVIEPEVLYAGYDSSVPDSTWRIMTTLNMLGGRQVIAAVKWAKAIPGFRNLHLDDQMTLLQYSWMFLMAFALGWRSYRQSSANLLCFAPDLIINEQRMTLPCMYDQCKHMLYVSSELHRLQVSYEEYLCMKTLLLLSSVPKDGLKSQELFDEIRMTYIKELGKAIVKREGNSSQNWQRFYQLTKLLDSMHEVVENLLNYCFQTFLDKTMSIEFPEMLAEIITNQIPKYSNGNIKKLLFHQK", "experiment": "Displacement of 10 nM [3H]dexamethasone from human Glucocorticoid receptor"}, "[3]": {"molecular_target": "T3, Progesterone receptor (Homo sapiens, UniProt P06401)", "T3 sequence (P06401 whole entry)": "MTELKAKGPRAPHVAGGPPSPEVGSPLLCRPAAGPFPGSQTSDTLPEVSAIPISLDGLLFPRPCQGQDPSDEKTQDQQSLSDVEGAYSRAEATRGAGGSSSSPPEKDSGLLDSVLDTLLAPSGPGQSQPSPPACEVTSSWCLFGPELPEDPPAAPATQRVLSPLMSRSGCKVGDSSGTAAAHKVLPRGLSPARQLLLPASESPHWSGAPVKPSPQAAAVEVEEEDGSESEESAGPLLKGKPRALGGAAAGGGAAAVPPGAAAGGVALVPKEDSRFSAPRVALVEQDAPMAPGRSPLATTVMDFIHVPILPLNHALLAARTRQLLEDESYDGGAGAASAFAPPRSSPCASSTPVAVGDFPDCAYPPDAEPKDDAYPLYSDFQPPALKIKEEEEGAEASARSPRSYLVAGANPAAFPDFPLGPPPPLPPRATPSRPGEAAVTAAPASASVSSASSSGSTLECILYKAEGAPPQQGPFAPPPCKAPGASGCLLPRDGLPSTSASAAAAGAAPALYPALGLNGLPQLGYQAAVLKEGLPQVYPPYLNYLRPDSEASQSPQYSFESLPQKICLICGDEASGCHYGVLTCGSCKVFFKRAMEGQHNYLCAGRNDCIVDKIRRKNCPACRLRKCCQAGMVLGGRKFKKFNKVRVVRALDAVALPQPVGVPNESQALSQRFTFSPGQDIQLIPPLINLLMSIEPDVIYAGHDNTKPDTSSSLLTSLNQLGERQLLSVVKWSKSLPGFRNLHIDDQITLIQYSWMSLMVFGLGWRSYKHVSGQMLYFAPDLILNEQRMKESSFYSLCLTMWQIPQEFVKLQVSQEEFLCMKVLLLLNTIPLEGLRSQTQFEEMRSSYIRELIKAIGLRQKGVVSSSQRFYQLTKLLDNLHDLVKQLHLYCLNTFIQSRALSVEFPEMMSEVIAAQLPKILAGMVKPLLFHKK", "experiment": "Displacement of radioligand from human Progesterone receptor"}},
  "data": [
    {"smiles": "Oc1ccc2c(c1)CC[C@@H]1C[C@@](O)(C#CCl)CC[C@@]21Cc1ccccc1", "values": [
      {"measurement": "Ki", "setting": "[1]", "result": 130, "unit": "nM"},
      {"measurement": "Ki", "setting": "[2]", "result": 0.1, "unit": "nM"},
      {"measurement": "Ki", "setting": "[3]", "result": "> 10000", "unit": "nM"}
    ]},
    {"smiles": "CC#C[C@@]1(O)CC[C@@]2(Cc3ccccc3)c3ccc(O)cc3CC[C@@H]2C1", "values": [
      {"measurement": "Ki", "setting": "[2]", "result": 0.17, "unit": "nM"},
      {"measurement": "Ki", "setting": "[3]", "result": "> 10000", "unit": "nM"}
    ]},
    {"smiles": "O=C1CC[C@@]2(Cc3ccccc3)c3ccc(O)cc3CC[C@@H]2C1", "values": [
      {"measurement": "Ki", "setting": "[1]", "result": 1300, "unit": "nM"},
      {"measurement": "Ki", "setting": "[2]", "result": 5.96, "unit": "nM"},
      {"measurement": "Ki", "setting": "[3]", "result": "> 10000", "unit": "nM"}
    ]},
    {"smiles": "CC#C[C@]1(O)CCC2C3CCC4=CC(=O)CC[C@]4(Cc4ccc(C)cc4)C3=CC[C@@]21C", "note": "(stereo not given in full)", "values": [
      {"measurement": "Ki", "setting": "[1]", "result": 90, "unit": "nM"},
      {"measurement": "Ki", "setting": "[2]", "result": 0.1, "unit": "nM"}
    ]}
  ]
}
